≈ marks a conversion by molar mass, not a printed value. Like-named read-outs stand apart in the source and are kept apart here.
What was measured:
[1] = target: T1, PI3K alfa (Homo sapiens, UniProt P42336); experiment: PI3K alpha kinase assay (Kinase-Glo luminescence); format: biochemical
T1 construct: His tag (C); made in house; host or cells: baculovirus BV1075; Tn5 (Trichoplusia ni) or TiniPro insect cells
In short: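 IC50 values come from a four-parameter logistic fit of percent inhibition at eight concentrations, typically 10 to 0.003 μM. Recombinant PI3Kα at 10 nM turned over 1 μM ATP with 10 μg/mL PI for 60 min at room temperature, and residual ATP was measured by Kinase-Glo.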

[2] = target: T2, PI3K delta (Homo sapiens, UniProt O00329); experiment: PI3K delta kinase assay (Kinase-Glo luminescence); format: biochemical
T2 construct: for the full-length p110-d subunit are generated and fused by overlapping PCR; His tag (C); made in house; host or cells: baculovirus BV1060; Tn5 (Trichoplusia ni) or TiniPro insect cells
In short: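 IC50s derive from 8-point inhibition curves fitted to a 4-parameter logistic model. Reaction: 10 nM purified p110δ/p85 iSH2 fusion, 1 μM ATP, 10 μg/mL PI substrate, pH 7.5 Tris buffer with MgCl2, NaCl, CHAPS and DTT, run 60 min at room temperature; remaining ATP read by Kinase-Glo luminescence.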

[3] = High-throughput equilibrium solubility at pH 6.8; format: physicochemical; conditions: pH 6.8, aqueous buffer, thermodynamic from solid; read-out: HT-Eq Sol/pH 6.8
In short: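 Following the procedure of Zhou et al. (2007), compound solubility was determined at pH 6.8.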

T2 sequence (O00329 with tags, fused parts or gaps limits assumed): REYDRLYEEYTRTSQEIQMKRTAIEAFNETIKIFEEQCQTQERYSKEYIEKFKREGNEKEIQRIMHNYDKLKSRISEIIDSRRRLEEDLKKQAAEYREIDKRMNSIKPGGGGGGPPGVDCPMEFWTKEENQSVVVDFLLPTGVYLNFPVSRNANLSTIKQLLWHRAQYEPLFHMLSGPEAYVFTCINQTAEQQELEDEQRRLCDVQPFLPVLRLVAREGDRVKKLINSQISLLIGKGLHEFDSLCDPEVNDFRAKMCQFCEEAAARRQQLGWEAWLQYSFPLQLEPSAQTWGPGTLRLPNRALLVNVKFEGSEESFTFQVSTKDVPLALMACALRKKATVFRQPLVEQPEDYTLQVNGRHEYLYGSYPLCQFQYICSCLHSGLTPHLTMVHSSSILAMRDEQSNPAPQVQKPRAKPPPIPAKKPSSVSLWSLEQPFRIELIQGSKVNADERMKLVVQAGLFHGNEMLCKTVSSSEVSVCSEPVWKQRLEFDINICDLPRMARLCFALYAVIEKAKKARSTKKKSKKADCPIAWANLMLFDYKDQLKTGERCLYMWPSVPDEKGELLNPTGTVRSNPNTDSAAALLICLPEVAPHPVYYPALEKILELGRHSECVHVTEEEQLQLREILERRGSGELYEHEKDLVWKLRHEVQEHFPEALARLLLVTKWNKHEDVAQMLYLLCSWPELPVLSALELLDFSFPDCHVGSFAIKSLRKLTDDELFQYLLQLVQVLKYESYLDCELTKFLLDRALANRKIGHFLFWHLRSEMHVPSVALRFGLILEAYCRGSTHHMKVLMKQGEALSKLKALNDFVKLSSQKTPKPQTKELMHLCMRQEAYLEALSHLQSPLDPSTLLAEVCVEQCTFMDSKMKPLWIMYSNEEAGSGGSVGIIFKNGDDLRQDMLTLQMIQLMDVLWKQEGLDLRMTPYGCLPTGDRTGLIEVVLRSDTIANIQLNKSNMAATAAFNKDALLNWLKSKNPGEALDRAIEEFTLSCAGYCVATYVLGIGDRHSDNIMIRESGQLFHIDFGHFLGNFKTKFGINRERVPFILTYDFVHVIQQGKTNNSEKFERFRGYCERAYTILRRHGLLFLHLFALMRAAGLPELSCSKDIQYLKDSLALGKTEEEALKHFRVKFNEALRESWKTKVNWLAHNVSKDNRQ
T1 sequence (P42336 with tags, fused parts or gaps limits assumed): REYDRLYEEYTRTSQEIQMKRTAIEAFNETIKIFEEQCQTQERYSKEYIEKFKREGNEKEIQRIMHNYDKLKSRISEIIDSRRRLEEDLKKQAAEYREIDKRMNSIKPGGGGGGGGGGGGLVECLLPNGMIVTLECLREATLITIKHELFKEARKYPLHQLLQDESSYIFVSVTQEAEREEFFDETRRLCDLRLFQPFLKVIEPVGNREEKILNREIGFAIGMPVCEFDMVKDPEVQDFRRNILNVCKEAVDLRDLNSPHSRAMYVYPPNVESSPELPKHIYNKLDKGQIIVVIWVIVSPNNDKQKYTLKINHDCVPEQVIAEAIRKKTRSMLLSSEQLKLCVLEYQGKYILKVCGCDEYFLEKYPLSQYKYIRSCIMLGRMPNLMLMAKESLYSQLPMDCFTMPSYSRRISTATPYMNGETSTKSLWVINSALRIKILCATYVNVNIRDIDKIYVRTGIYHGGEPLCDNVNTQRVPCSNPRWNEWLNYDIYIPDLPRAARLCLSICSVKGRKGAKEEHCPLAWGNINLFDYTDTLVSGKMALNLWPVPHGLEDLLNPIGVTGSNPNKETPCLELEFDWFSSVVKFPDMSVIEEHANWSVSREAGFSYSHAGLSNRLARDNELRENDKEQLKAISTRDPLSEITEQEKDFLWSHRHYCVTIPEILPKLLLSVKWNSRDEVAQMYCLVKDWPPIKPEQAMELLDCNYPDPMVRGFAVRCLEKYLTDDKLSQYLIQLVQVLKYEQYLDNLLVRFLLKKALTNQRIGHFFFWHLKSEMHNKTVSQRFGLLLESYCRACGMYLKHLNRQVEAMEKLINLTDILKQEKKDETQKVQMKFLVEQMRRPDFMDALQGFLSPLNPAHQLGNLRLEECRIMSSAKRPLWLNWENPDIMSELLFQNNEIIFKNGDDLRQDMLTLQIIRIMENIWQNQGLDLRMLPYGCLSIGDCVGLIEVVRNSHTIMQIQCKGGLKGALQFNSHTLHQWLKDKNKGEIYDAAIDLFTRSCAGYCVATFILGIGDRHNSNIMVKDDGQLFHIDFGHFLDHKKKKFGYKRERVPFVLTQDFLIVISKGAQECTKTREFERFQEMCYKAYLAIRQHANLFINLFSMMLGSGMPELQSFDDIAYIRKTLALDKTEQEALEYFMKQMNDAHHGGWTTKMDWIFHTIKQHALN

CNc1ncc(-c2ccc3ncc4c(c3c2)n(-c2ccc(C(C)(C)O)nc2C)c(=O)n4C)cc1F [Example 31.1, 8-(5-Fluoro-6-methylamino-pyridin-3-yl)-1-[6-(1-hydroxy-1-methyl-ethyl)-2-methyl-pyridin-3-yl]-3-methyl-1,3-dihydro-imidazo[4,5-c]quinolin-2-one]
IC50 ([1]; read-out: EPK_PI3Kalfa/IC50): 23 nM | IC50 ([2]; read-out: EPK_PI3Kdelta/IC50): 3 nM | solubility thermodynamic [3]: 3 µg/mL (≈ 6.35 µM)

Cc1nc(C(C)(C)O)ccc1-n1c(=O)n(C)c2cnc3ccc(-c4cnc(N)c(C(F)(F)F)c4)cc3c21 [Example 31.5, 8-(6-Amino-5-trifluoromethyl-pyridin-3-yl)-1-[6-(1-hydroxy-1-methyl-ethyl)-2-methyl-pyridin-3-yl]-3-methyl-1,3-dihydro-imidazo[4,5-c]quinolin-2-one]
IC50 ([1]; read-out: EPK_PI3Kalfa/IC50): 6 nM | IC50 ([2]; read-out: EPK_PI3Kdelta/IC50): < 3 nM | solubility thermodynamic [3]: 3 µg/mL (≈ 5.9 µM)

COc1cc(-c2ccc3ncc4c(c3c2)n(-c2ccc(N3CC(O)C3)nc2C)c(=O)n4C)cnc1CO [Example 29.5, 1-[6-(3-Hydroxy-azetidin-1-yl)-2-methyl-pyridin-3-yl]-8-(6-hydroxymethyl-5-methoxy-pyridin-3-yl)-3-methyl-1,3-dihydro-imidazo[4,5-c]quinolin-2-one]
IC50 ([1]; read-out: EPK_PI3Kalfa/IC50): 31 nM | IC50 ([2]; read-out: EPK_PI3Kdelta/IC50): 50 nM | solubility thermodynamic [3]: 256 µg/mL (≈ 513 µM)

Cc1ncccc1-n1c(=O)n(C)c2cnc3ccc(-c4cncc(N5CCC5)c4)cc3c21 [Example 2.29, 8-(5-Azetidin-1-yl-pyridin-3-yl)-3-methyl-1-(2-methyl-pyridin-3-yl)-1,3-dihydro-imidazo[4,5-c]quinolin-2-one]
IC50 ([1]; read-out: EPK_PI3Kalfa/IC50): 179 nM | IC50 ([2]; read-out: EPK_PI3Kdelta/IC50): 504 nM | solubility thermodynamic [3]: 8 µg/mL (≈ 18.9 µM)

CNc1ncc(-c2ccc3ncc4c(c3c2)n(-c2ccc(N3CC[C@H](O)C3)nc2C)c(=O)n4C)cc1C(F)(F)F [Example 32.5, 1-[6-((S)-3-Hydroxy-pyrrolidin-1-yl)-2-methyl-pyridin-3-yl]-3-methyl-8-(6-methylamino-5-trifluoromethyl-pyridin-3-yl)-1,3-dihydro-imidazo[4,5-c]quinolin-2-one]
IC50 ([1]; read-out: EPK_PI3Kalfa/IC50): 9 nM | IC50 ([2]; read-out: EPK_PI3Kdelta/IC50): 4 nM | solubility thermodynamic [3]: 49 µg/mL (≈ 89.2 µM)

Cn1c(=O)n(-c2cccnc2F)c2c3cc(-c4cnc(N)c(C(F)(F)F)c4)ccc3ncc21 [Example 6.2, 8-(6-Amino-5-trifluoromethyl-pyridin-3-yl)-1-(2-fluoro-pyridin-3-yl)-3-methyl-1,3-dihydro-imidazo[4,5-c]quinolin-2-one]
IC50 ([1]; read-out: PI3Kalfa/IC50): 9 nM | IC50 ([2]; read-out: PI3Kdelta/IC50): 12 nM | solubility thermodynamic [3]: 6 µg/mL (≈ 13.2 µM)

CNc1ncc(-c2ccc3ncc4c(c3c2)n(-c2ccc(N3CC(O)C3)nc2C)c(=O)n4C)cc1C(F)(F)F [Example 29.4, 1-[6-(3-Hydroxy-azetidin-1-yl)-2-methyl-pyridin-3-yl]-3-methyl-8-(6-methylamino-5-trifluoromethyl-pyridin-3-yl)-1,3-dihydro-imidazo[4,5-c]quinolin-2-one]
IC50 ([1]; read-out: EPK_PI3Kalfa/IC50): 17 nM | IC50 ([2]; read-out: EPK_PI3Kdelta/IC50): 13 nM | solubility thermodynamic [3]: 44 µg/mL (≈ 82.2 µM)

Cc1nc(N2CCC2)ccc1-n1c(=O)n(C)c2cnc3ccc(-c4cncc(N5CCC5)c4)cc3c21 [Example 23.1, 1-(6-Azetidin-1-yl-2-methyl-pyridin-3-yl)-8-(5-azetidin-1-yl-pyridin-3-yl)-3-methyl-1,3-dihydro-imidazo[4,5-c]quinolin-2-one]
IC50 ([1]; read-out: EPK_PI3Kalfa/IC50): 14 nM | IC50 ([2]; read-out: EPK_PI3Kdelta/IC50): 84 nM | solubility thermodynamic [3]: 22 µg/mL (≈ 46.1 µM)

Cc1nc(C(C)(C)O)ccc1-n1c(=O)n(C)c2cnc3ccc(-c4cncc(C(C)(C)C#N)c4)cc3c21 [Example 31.6, 2-(5-{1-[6-(1-Hydroxy-1-methyl-ethyl)-2-methyl-pyridin-3-yl]-3-methyl-2-oxo-2,3-dihydro-1H-imidazo[4,5-c]quinolin-8-yl}-pyridin-3-yl)-2-methyl-propionitrile]
IC50 ([1]; read-out: EPK_PI3Kalfa/IC50): 2 nM | IC50 ([2]; read-out: EPK_PI3Kdelta/IC50): 7 nM | solubility thermodynamic [3]: 3 µg/mL (≈ 6.09 µM)

Cc1nc(N2CCCC2)ccc1-n1c(=O)n(C)c2cnc3ccc(-c4cncc(C(C)(C)O)c4)cc3c21 [Example 25.3, 8-[5-(1-Hydroxy-1-methyl-ethyl)-pyridin-3-yl]-3-methyl-1-(2-methyl-6-pyrrolidin-1-yl-pyridin-3-yl)-1,3-dihydro-imidazo[4,5-c]quinolin-2-one]
IC50 ([1]; read-out: EPK_PI3Kalfa/IC50): < 3 nM | IC50 ([2]; read-out: EPK_PI3Kdelta/IC50): < 3 nM | solubility thermodynamic [3]: 99 µg/mL (≈ 200 µM)

CNc1ncc(-c2ccc3ncc4c(c3c2)n(-c2ccc(N3CC(O)C3)nc2C)c(=O)n4C)cc1F [Example 29.3, 8-(5-Fluoro-6-methylamino-pyridin-3-yl)-1-[6-(3-hydroxy-azetidin-1-yl)-2-methyl-pyridin-3-yl]-3-methyl-1,3-dihydro-imidazo[4,5-c]quinolin-2-one]
IC50 ([1]; read-out: EPK_PI3Kalfa/IC50): 40 nM | IC50 ([2]; read-out: EPK_PI3Kdelta/IC50): 23 nM | solubility thermodynamic [3]: 56 µg/mL (≈ 115 µM)

COc1ccc(-c2ccc3ncc4c(c3c2)n(-c2cccnc2C)c(=O)n4C)cc1OC [Example 2.9, 8-(3,4-Dimethoxy-phenyl)-3-methyl-1-(2-methyl-pyridin-3-yl)-1,3-dihydro-imidazo[4,5-c]quinolin-2-one]
IC50 ([1]; read-out: PI3Kalfa/IC50): 12 nM | IC50 ([2]; read-out: PI3Kdelta/IC50): 37 nM | solubility thermodynamic [3]: 12 µg/mL (≈ 28.1 µM)

CN(C)c1ccc(-c2ccc3ncc4c(c3c2)n(-c2cccnc2)c(=O)n4C)cn1 [Example 5.3, 8-(6-Dimethylamino-pyridin-3-yl)-3-methyl-1-pyridin-3-yl-1,3-dihydro-imidazo[4,5-c]quinolin-2-one]
IC50 ([1]; read-out: PI3Kalfa/IC50): 47 nM | IC50 ([2]; read-out: PI3Kdelta/IC50): 193 nM | solubility thermodynamic [3]: 4 µg/mL (≈ 10.1 µM)

CNc1ncc(-c2ccc3ncc4c(c3c2)n(-c2ccc(N3CC[C@H](O)C3)nc2C)c(=O)n4C)cn1 [Example 32.1, 1-[6-((S)-3-Hydroxy-pyrrolidin-1-yl)-2-methyl-pyridin-3-yl]-3-methyl-8-(2-methylamino-pyrimidin-5-yl)-1,3-dihydro-imidazo[4,5-c]quinolin-2-one]
IC50 ([1]; read-out: EPK_PI3Kalfa/IC50): 17 nM | IC50 ([2]; read-out: EPK_PI3Kdelta/IC50): 9 nM | solubility thermodynamic [3]: 64 µg/mL (≈ 133 µM)

Cc1nc(C(F)(F)F)ccc1-n1c(=O)n(C)c2cnc3ccc(-c4cncc(C(C)(C)O)c4)cc3c21 [Example 33.1, 8-[5-(1-Hydroxy-1-methyl-ethyl)-pyridin-3-yl]-3-methyl-1-(2-methyl-6-trifluoromethyl-pyridin-3-yl)-1,3-dihydro-imidazo[4,5-c]quinolin-2-one]
IC50 ([1]; read-out: EPK_PI3Kalfa/IC50): 13 nM | IC50 ([2]; read-out: EPK_PI3Kdelta/IC50): 6 nM | solubility thermodynamic [3]: 423 µg/mL (≈ 857 µM)

Cc1ncccc1-n1c(=O)n(C)c2cnc3ccc(-c4ccc(CO)nc4)cc3c21 [Example 2.6, 8-(6-Hydroxymethyl-pyridin-3-yl)-3-methyl-1-(2-methyl-pyridin-3-yl)-1,3-dihydro-imidazo[4,5-c]quinolin-2-one]
IC50 ([1]; read-out: PI3Kalfa/IC50): 100 nM | IC50 ([2]; read-out: PI3Kdelta/IC50): 59 nM | solubility thermodynamic [3]: 125 µg/mL (≈ 315 µM)

CNc1ccc(-c2ccc3ncc4c(c3c2)n(-c2ccc(N3CCC3)nc2C)c(=O)n4C)cn1 [Example 23.4, 1-(6-Azetidin-1-yl-2-methyl-pyridin-3-yl)-3-methyl-8-(6-methylamino-pyridin-3-yl)-1,3-dihydro-imidazo[4,5-c]quinolin-2-one]
IC50 ([1]; read-out: EPK_PI3Kalfa/IC50): 27 nM | IC50 ([2]; read-out: EPK_PI3Kdelta/IC50): 48 nM | solubility thermodynamic [3]: 9 µg/mL (≈ 19.9 µM)

CCOc1ccc(-c2ccc3ncc4c(c3c2)n(-c2cccnc2F)c(=O)n4C)cn1 [Example 6.1, 8-(6-Ethoxy-pyridin-3-yl)-1-(2-fluoro-pyridin-3-yl)-3-methyl-1,3-dihydro-imidazo[4,5-c]quinolin-2-one]
IC50 ([1]; read-out: PI3Kalfa/IC50): 21 nM | IC50 ([2]; read-out: PI3Kdelta/IC50): 64 nM | solubility thermodynamic [3]: 2 µg/mL (≈ 4.81 µM)

CNc1ncc(-c2ccc3ncc4c(c3c2)n(-c2ccc(N3CC[C@H](O)C3)nc2C)c(=O)n4C)cc1F [Example 32.2, 8-(5-Fluoro-6-methylamino-pyridin-3-yl)-1-[6-((S)-3-hydroxy-pyrrolidin-1-yl)-2-methyl-pyridin-3-yl]-3-methyl-1,3-dihydro-imidazo[4,5-c]quinolin-2-one]
IC50 ([1]; read-out: EPK_PI3Kalfa/IC50): 44 nM | IC50 ([2]; read-out: EPK_PI3Kdelta/IC50): 36 nM | solubility thermodynamic [3]: 7 µg/mL (≈ 14 µM)

COc1ncc(-c2ccc3ncc4c(c3c2)n(-c2ccc(N3CC[C@H](O)C3)nc2C)c(=O)n4C)c(OC)n1 [Example 32.3, 8-(2,4-Dimethoxy-pyrimidin-5-yl)-1-[6-((S)-3-hydroxy-pyrrolidin-1-yl)-2-methyl-pyridin-3-yl]-3-methyl-1,3-dihydro-imidazo[4,5-c]quinolin-2-one]
IC50 ([1]; read-out: EPK_PI3Kalfa/IC50): 32 nM | IC50 ([2]; read-out: EPK_PI3Kdelta/IC50): 11 nM | solubility thermodynamic [3]: 30 µg/mL (≈ 58.4 µM)

COc1ccc(-c2ccc3ncc4c(c3c2)n(-c2ncccc2C)c(=O)n4C)cc1OC [Example 3.10, 8-(3,4-Dimethoxy-phenyl)-3-methyl-1-(3-methyl-pyridin-2-yl)-1,3-dihydro-imidazo[4,5-c]quinolin-2-one]
IC50 ([1]; read-out: PI3Kalfa/IC50): 57 nM | IC50 ([2]; read-out: PI3Kdelta/IC50): 151 nM | solubility thermodynamic [3]: 195 µg/mL (≈ 457 µM)

Cc1ncccc1-n1c(=O)n(C)c2cnc3ccc(-c4ccc(N)nc4)cc3c21 [Example 2.7, 8-(6-Amino-pyridin-3-yl)-3-methyl-1-(2-methyl-pyridin-3-yl)-1,3-dihydro-imidazo[4,5-c]quinolin-2-one]
IC50 ([1]; read-out: PI3Kalfa/IC50): 18 nM | IC50 ([2]; read-out: PI3Kdelta/IC50): 35 nM | solubility thermodynamic [3]: 17 µg/mL (≈ 44.5 µM)

CNc1cc(-c2ccc3ncc4c(c3c2)n(-c2cccnc2C)c(=O)n4C)cnc1C [Example 2.32, 3-Methyl-8-(6-methyl-5-methylamino-pyridin-3-yl)-1-(2-methyl-pyridin-3-yl)-1,3-dihydro-imidazo[4,5-c]quinolin-2-one]
IC50 ([1]; read-out: EPK_PI3Kalfa/IC50): 31 nM | IC50 ([2]; read-out: EPK_PI3Kdelta/IC50): 31 nM | solubility thermodynamic [3]: 127 µg/mL (≈ 309 µM)

From patent US20100311714A1, “1H-IMIDAZO[4,5-c]QUINOLINONE COMPOUNDS” (priority 2009, published 2010)
